Active and inactive are the calls of the source.
Columns and labels:
Assay type in all cases: functional
[1] = molecular target: Proto-oncogene tyrosine-protein kinase Src (Homo sapiens, UniProt P12931);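 also: SRC entry within a kinome-wide kinase profiling panel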
[2] = molecular target: Mitogen-activated protein kinase 12 (Homo sapiens, UniProt P53778);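 also: measured as one member of a kinome-wide kinase profiling panel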
[3] = molecular target: Vascular endothelial growth factor receptor 2 (Homo sapiens, UniProt P35968)
[4] = molecular target: MAP kinase-activated protein kinase 5 (Homo sapiens, UniProt Q8IW41);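 also: measured as one member of a kinome panel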
[5] = molecular target: Rho-associated protein kinase 1 (Homo sapiens, UniProt Q13464);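 also: measured within a broad kinome-wide panel profiling many kinases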
[6] = molecular target: Lymphokine-activated killer T-cell-originated protein kinase (Homo sapiens, UniProt Q96KB5);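 also: value comes from a kinase panel screen in which TOPK was one of the panel members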
[7] = molecular target: Casein kinase I isoform gamma-1 (Homo sapiens, UniProt Q9HCP0);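 also: measured as the CSNK1G1 member of a kinome profiling panel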
[8] = molecular target: Tyrosine-protein kinase Blk (Homo sapiens, UniProt P51451);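 also: obtained as one member of a kinome-wide kinase assay panel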
[9] = molecular target: Protein kinase C delta type (Homo sapiens, UniProt Q05655)
[10] = molecular target: Tyrosine-protein kinase receptor TYRO3 (Homo sapiens, UniProt Q06418);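 also: TYRO3 value obtained as one member of a kinome-wide profiling panel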
[11] = molecular target: Casein kinase I isoform alpha (Homo sapiens, UniProt P48729)
Aurora kinase B = Aurora kinase B (Homo sapiens, UniProt Q96GD4)
[12] = molecular target: Serine/threonine-protein kinase D2 (Homo sapiens, UniProt Q9BZL6);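 also: measured against PRKD2 as one member of a kinome-wide kinase profiling panel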
[13] = molecular target: Death-associated protein kinase 3 (Homo sapiens, UniProt O43293);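 also: measured as one member of a kinome-wide profiling panel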
[14] = molecular target: Mitochondrial peptide methionine sulfoxide reductase (Bos taurus, UniProt P54149); experiment: Absorbance-based biochemical high throughput dose response assay for activators of Methionine sulfoxide reductase A (MsrA).
[15] = molecular target: T1, Sentrin-specific protease 7 (Homo sapiens, UniProt Q9BQF6); experiment: inhibition of human SENP7 cleavage activity – biochemical, luminescence, SAR follow-up (AID 504497)
T1 sequence (Q9BQF6 whole entry): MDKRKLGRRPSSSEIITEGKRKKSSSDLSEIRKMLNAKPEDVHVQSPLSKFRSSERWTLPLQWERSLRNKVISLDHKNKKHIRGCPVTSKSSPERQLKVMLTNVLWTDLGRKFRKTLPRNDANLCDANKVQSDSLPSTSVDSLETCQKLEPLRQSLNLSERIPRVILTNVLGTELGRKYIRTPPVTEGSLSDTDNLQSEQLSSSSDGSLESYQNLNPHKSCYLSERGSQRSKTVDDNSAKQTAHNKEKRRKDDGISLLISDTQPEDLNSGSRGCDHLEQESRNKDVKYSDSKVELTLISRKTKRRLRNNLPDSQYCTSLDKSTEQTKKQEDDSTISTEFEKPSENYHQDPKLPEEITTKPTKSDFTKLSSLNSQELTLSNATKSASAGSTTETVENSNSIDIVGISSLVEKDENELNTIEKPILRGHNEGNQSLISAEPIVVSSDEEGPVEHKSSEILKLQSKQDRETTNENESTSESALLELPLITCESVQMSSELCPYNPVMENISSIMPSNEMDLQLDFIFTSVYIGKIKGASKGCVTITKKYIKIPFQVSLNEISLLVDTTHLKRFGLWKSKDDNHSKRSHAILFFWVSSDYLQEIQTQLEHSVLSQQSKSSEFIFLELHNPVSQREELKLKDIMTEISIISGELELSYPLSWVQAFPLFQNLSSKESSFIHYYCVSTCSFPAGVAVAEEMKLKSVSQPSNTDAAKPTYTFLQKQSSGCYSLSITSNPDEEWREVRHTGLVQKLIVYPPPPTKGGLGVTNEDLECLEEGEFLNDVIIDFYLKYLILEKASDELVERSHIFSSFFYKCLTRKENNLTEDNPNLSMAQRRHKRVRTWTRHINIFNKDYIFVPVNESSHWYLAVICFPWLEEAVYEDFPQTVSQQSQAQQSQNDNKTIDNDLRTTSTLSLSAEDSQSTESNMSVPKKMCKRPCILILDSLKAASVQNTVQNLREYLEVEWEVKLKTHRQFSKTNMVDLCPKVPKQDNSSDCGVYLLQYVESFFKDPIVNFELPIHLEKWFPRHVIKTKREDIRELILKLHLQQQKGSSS

Caspase-3 = molecular target: T2, Caspase-3 (Homo sapiens, UniProt P42574); experiment: SAR Analysis of small molecule inhibitors of Sentrin-specific proteases (SENPs) using a Caspase-3 Selectivity assay. [Related pubchem assays (depositor defined):AID2540, AID2599, AID434973, AID489001]
T2 sequence (P42574 whole entry): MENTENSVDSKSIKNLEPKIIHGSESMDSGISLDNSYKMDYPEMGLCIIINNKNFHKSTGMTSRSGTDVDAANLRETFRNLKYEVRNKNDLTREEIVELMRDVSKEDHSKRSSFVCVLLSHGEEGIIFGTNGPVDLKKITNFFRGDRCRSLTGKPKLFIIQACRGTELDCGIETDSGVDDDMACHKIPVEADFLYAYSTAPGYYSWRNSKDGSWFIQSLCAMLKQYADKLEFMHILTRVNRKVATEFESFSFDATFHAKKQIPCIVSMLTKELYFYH

Sequence of Protein kinase C delta type (Q05655 whole entry): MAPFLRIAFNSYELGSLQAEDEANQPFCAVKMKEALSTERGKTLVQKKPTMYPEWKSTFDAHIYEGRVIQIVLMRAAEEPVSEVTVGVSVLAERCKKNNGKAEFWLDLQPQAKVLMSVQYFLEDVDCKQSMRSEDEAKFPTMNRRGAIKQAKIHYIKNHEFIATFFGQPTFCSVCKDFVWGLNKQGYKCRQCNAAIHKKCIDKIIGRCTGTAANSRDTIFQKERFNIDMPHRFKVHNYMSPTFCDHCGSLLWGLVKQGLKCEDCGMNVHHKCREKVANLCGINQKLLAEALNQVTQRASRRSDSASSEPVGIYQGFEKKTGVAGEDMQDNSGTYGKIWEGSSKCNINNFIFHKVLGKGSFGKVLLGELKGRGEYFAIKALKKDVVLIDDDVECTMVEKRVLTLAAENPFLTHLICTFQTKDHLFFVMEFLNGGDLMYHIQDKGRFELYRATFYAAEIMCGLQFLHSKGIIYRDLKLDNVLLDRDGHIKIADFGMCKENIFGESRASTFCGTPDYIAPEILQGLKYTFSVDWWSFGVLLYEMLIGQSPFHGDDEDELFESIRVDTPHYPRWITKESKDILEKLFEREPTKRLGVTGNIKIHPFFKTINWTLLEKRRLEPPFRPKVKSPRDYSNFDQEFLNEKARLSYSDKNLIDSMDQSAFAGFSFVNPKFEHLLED
Sequence of Lymphokine-activated killer T-cell-originated protein kinase (Q96KB5 whole entry, canonical isoform): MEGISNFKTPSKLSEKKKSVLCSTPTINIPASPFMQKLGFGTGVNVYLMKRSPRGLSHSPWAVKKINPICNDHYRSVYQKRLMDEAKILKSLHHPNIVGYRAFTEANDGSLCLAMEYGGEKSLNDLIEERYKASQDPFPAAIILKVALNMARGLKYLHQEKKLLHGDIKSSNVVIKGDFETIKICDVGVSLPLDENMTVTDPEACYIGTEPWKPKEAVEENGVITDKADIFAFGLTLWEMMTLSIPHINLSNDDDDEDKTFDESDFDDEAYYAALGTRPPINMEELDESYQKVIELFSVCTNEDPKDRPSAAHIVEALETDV
Sequence of Proto-oncogene tyrosine-protein kinase Src (P12931 2-536 limits assumed): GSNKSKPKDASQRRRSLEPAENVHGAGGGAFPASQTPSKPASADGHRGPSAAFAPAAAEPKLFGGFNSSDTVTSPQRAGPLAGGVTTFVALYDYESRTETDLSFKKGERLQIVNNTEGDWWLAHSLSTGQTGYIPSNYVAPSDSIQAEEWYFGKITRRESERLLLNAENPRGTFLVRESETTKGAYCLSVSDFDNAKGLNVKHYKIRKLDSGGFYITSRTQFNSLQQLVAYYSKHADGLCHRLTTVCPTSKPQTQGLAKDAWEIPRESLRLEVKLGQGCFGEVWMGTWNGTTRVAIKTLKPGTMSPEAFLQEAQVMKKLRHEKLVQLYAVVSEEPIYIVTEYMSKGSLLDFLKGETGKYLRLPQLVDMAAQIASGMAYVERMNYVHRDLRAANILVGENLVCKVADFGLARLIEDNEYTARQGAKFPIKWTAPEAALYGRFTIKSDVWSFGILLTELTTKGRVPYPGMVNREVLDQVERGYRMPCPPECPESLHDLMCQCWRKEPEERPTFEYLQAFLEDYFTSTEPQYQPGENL
Sequence of Casein kinase I isoform alpha (P48729 whole entry, canonical isoform): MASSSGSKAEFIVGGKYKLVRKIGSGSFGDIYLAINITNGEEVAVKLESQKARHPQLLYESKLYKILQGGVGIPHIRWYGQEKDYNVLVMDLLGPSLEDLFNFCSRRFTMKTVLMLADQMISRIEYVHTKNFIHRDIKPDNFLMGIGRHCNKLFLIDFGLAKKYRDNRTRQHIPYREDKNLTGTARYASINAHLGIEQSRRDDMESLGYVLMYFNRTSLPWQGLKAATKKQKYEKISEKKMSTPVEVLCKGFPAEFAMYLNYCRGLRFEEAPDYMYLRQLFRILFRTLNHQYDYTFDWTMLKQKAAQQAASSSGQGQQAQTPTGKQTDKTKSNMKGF
Sequence of Tyrosine-protein kinase receptor TYRO3 (Q06418 whole entry, canonical isoform): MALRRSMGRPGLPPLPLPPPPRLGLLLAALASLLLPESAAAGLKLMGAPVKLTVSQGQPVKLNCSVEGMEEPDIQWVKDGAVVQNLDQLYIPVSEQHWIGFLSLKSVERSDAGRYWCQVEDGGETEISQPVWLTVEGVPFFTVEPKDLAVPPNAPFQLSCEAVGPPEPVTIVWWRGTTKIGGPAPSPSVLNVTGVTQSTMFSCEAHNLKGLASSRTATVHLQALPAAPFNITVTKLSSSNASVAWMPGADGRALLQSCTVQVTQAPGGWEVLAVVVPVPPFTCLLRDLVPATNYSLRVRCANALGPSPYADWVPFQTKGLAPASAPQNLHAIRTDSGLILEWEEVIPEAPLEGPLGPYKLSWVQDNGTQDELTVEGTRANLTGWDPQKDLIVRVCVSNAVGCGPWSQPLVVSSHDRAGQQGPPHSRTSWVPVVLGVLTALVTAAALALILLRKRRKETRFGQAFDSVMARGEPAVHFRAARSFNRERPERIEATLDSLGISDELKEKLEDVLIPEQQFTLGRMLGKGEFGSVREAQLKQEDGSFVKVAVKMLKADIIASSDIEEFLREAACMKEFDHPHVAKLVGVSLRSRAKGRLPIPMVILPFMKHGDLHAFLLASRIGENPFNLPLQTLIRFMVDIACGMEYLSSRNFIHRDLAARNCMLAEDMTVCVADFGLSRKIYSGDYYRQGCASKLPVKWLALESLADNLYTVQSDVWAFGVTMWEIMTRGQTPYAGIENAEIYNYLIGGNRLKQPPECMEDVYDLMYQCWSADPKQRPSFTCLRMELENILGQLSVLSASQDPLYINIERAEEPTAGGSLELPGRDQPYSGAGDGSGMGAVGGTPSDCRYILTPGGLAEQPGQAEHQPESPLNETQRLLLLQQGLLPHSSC
Sequence of Mitogen-activated protein kinase 12 (P53778 whole entry): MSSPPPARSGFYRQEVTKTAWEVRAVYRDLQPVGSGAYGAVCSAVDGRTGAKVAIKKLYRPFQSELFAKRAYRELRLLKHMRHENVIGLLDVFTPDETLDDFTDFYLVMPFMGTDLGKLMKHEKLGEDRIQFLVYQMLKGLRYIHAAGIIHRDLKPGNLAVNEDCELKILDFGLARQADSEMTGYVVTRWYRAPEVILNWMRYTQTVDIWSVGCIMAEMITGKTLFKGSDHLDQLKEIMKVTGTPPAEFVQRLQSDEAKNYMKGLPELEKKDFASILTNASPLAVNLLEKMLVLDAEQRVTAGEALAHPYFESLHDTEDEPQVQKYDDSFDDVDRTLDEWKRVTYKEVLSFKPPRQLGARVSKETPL
Sequence of Mitochondrial peptide methionine sulfoxide reductase (P54149 whole entry): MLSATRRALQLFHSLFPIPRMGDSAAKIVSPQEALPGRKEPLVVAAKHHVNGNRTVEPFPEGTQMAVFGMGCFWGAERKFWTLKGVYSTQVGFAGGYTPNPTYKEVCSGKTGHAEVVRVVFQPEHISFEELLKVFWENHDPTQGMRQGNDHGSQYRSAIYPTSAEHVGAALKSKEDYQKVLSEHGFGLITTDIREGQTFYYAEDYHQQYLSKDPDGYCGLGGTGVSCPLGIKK
Sequence of Rho-associated protein kinase 1 (Q13464 whole entry): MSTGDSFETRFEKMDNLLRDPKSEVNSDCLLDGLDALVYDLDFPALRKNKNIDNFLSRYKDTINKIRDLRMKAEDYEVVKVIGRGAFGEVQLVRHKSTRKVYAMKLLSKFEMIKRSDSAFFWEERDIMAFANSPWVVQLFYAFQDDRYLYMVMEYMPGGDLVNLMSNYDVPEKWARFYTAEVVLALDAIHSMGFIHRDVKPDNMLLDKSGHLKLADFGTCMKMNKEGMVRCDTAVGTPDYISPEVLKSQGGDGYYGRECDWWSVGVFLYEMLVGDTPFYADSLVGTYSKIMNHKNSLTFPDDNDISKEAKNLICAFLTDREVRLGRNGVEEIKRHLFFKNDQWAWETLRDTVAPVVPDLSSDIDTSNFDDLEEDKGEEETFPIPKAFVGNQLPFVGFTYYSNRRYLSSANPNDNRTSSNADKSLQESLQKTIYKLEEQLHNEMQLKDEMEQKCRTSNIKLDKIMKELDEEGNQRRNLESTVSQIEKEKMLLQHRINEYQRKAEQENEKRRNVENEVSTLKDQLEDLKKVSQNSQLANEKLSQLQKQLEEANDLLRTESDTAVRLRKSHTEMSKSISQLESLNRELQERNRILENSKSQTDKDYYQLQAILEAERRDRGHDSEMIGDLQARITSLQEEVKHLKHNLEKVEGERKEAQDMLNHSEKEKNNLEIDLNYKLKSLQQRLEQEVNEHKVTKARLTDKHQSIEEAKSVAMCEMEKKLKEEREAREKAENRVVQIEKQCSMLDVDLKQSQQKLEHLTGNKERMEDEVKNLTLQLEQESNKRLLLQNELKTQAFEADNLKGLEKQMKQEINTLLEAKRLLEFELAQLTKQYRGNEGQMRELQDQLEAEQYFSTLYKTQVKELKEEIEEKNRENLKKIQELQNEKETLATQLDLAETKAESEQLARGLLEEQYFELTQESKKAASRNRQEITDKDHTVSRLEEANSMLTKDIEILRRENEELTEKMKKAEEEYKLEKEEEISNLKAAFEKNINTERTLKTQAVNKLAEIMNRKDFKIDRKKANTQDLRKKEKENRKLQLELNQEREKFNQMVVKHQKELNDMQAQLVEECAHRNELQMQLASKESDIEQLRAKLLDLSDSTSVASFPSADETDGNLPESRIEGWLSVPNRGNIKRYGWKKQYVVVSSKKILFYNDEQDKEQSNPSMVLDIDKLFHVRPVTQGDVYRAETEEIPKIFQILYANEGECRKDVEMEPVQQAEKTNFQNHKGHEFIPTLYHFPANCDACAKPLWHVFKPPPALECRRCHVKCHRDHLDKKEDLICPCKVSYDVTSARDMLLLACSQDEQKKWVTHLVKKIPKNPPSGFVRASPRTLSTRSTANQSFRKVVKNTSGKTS

Oc1c2ccccc2c2c3c(cccc13)N=N2 [SP-600125]
inactive: Ki [1] > 2000 nM | Ki [2] > 6310 nM | Ki [4] > 1580 nM | Ki [7] > 6310 nM | Ki [9] > 7940 nM
active: Ki [3] 631 nM | Ki [5] 2000 nM | Ki [6] 1000 nM | Ki [8] 200 nM | Ki [10] 1000 nM | Ki [11] 316 nM | Ki (Aurora kinase B) 10 nM | Ki [12] 158 nM | Ki [13] 398 nM

O=C(COC(=O)c1ccc([N+](=O)[O-])s1)Nc1cccc(S(=O)(=O)/N=C2/CCCCCN2)c1
inactive: EC50 [14] 70400 nM

COc1ccc(C(C[N+](=O)[O-])c2c(C)[nH]n(-c3ccccc3)c2=O)cc1 (configuration not stated)
active: IC50 [15] 12300 nM | IC50 (Caspase-3) 45500 nM

— ChEMBL document CHEMBL1201862, “PubChem BioAssay data set” (2004)
